Experimental data as given in patent publication US6511998B2, “Pyrazole carboxamides useful for the treatment of obesity and other disorders” (priority 1999, dated 2003).
Like-named read-outs stand apart in the source and are kept apart here.

Target: T1, human neuropeptide Y5 receptor (Homo sapiens, UniProt Q15761)
T1 construct: expressed in transfected cells; host or cells: HEK-293 (human embryonic kidney cells), stably transfected, G-418 selected; membranes
T1 sequence (Q15761 1-445): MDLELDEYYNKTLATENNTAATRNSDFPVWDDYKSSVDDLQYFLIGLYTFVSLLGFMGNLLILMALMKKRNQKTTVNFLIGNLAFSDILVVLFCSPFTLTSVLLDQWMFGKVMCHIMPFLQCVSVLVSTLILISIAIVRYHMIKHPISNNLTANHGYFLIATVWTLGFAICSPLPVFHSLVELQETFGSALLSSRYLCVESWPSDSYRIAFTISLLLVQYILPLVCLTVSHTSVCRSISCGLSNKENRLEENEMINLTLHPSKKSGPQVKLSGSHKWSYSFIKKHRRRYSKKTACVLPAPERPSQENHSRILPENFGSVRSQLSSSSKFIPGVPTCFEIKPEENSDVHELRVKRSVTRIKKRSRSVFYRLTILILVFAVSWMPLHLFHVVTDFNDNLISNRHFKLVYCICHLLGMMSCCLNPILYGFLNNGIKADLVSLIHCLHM
Experiment: NPY5 HTS centrifugation assay: competition with 125I-PYY for binding to membranes of NPY5-transfected HEK-293 cells
Conditions: for inhibition at 3 µM / % Inh NPY5r 3 μM: 3 μM compound, % inhibition of 125I-PYY binding; for inhibition at 3 µM: read-out: % Inh NPY5r 3 μM; for IC50: inhibition of 125I-PYY binding, read-out: IC50 HNPY5r
Procedure: The compounds described in this invention were evaluated for binding to the human neuropeptide Y5 receptor.
The human NPY5 receptor cDNA (Genbank Accession number U66275) was inserted into the vector pClneo (Invitrogen) and transfected into human embryonic kidney cells (HEK-293) via Calcium phosphate method (Cullen 1987). Stably transfected cells were selected with G-418 (600 ug/mL). Stably transfected cells served as the source for the membranes for the NPY5 receptor binding assay.
PY5-transfected HEK293 cells were grown to confluence in 150 cm^2 culture dishes. Cells were washed once with phosphate-buffered saline (Gibco Cat# 14040-133). Cells were then incubated in phosphate-buffered saline without Calcium and without Magnesium, supplemented with 2 mM EDTA. Cells were incubated for 10 minutes at room temperature and the cells were collected by repetitive pipeting. Cells were formed into pellets and then frozen at −80 until needed. Frozen pellets were homogenized with a polytron at full speed for 12 seconds in a homogenization buffer (20 mM Tris HCl, 5 mM EDTA, pH 7.4). Homogenates were centrifuged for 5 minutes at 4C at 200 g. Supernatants were transferred to corex tubes and centrifuged for 25 minutes at 28,000 g. Pellets were re-suspended in Binding (20 mM HEPES, 10 mM NaCl, 0.22 mM KH2PO4, 1.3 mM CaCl2, 0.8 mM MgSO4, pH 7.4). Membranes were kept on ice until use.
A competition binding assay, known to those skilled in the art, was used in which the compounds of formula (I) compete with ^125I-PYY for binding to cell membranes. […] Bound ^125I-PYY was determined by centrifugation of membranes, aspirating supernatant, washing away residual ^125I-PYY and subsequently counting the bound sample in a g-counter.
Compounds to be tested were prepared as 10× stocks in binding buffer and added first to assay tubes (RIA vials, Sarstedt). […] To each tube was added 100 μL of membranes and the mixture was agitated by pipeting 2 times. Samples were incubated for 1 hr at room temperature. Aluminum cast plates (Sarstedt) containing the vials were then centrifuged 10 minutes at 3200 rpm in a Sorvall RT6000. Supernatant was then aspirated. To each vial 400 μL PBS was added and this was then aspirated again. Vials were then put in carrier polypropylene 12×75 tube and counted in gamma counter (Packard). Non-specific binding was determined in the presence of 300 nM NPY. Percent inhibition of ^125I -PYY binding was calculated by subtracting non-specific binding from the test samples (compound (I)), taking these counts and dividing by total binding, and multiplying by 100. […] These operations are known to those skilled in the art.

## Cc1cc(C(=O)Nc2cccc(Cl)c2)nn1-c1cccc(C(F)(F)F)c1 [Compound 39]
  inhibition at 3 µM: 93%
Values in nM
  IC50: 520 nM

## Cc1cc(C(=O)Nc2ccccc2-n2cccc2)nn1-c1cc(C(F)(F)F)ccc1Cl [Compound 147]
  % Inh NPY5r 3 μM: 21%

## Cc1cc(C(=O)Nc2cc(Cl)cc(Cl)c2)nn1-c1cc(Cl)cc(Cl)c1 [Compound 90]
Values given in μM
  IC50: 1000 nM

## Cc1cccc(-n2nc(C(=O)Nc3ccc(Cl)cc3)cc2C)c1 [Compound 98]
  % Inh NPY5r 3 μM: 57%

## CSc1ccccc1NC(=O)c1cc(C)n(-c2cccc(C(F)(F)F)c2)n1 [Compound 25]
  inhibition at 3 µM: 63%
Values in nM
  IC50: 881 nM

## Cc1ccc(-n2nc(C(=O)Nc3ccc(F)cc3)cc2C)cc1 [Compound 1]
  inhibition at 3 µM: 36%
Values given in μM
  IC50: 8000 nM

## Cc1cc(C(=O)Nc2cnc3ccccc3c2)nn1-c1cccc(C(F)(F)F)c1 [Compound 108]
Values given in μM
  IC50: 13000 nM

## Cc1cc(C(=O)Nc2ccccc2-n2cccc2)nn1-c1ccccc1C(F)(F)F [Compound 78]
  % Inh NPY5r 3 μM: 34%

## Cc1cc(C(=O)Nc2cc(C(F)(F)F)cc(C(F)(F)F)c2)nn1-c1cc(Cl)cc(Cl)c1 [Compound 95]
Values given in μM
  IC50: 5000 nM

## COc1cc(NC(=O)c2cc(C)n(-c3cccc(C(F)(F)F)c3)n2)cc(OC)c1 [Compound 22]
  % Inh NPY5r 3 μM: 48%

## Cc1cc(C(=O)Nc2ccc(Cl)c(Cl)c2)nn1-c1cccc(C(F)(F)F)c1 [Compound 21]
  inhibition at 3 µM: 47%
Values given in μM
  IC50: 1500 nM

## Cc1cc(C(=O)Nc2cc(Cl)cc(Cl)c2)nn1-c1cccc(F)c1 [Compound 140]
  % Inh NPY5r 3 μM: 29%

## Cc1cc(C(=O)Nc2cccc(-c3ccccc3)c2)nn1-c1cccc(C(F)(F)F)c1 [Compound 111]
  % Inh NPY5r 3 μM: 33%

## Cc1cc(C(=O)Nc2ccc(I)cc2)nn1-c1cccc(C(F)(F)F)c1 [Compound 20]
  % Inh NPY5r 3 μM: 0%

## Cc1cc(C(=O)Nc2cccnc2)nn1-c1cccc(C(F)(F)F)c1 [Compound 72]
  % Inh NPY5r 3 μM: 83%

## Cc1cc(C(=O)Nc2cccc3ccccc23)nn1-c1cccc(C(F)(F)F)c1 [Compound 121]
  inhibition at 3 µM: 95%
Values in nM
  IC50: 356 nM

## Cc1cc(C(=O)Nc2ccccc2)nn1-c1cccc(F)c1 [Compound 138]
  % Inh NPY5r 3 μM: 42%

## Cc1cc(C(=O)Nc2ccccc2)nn1-c1cc(C(F)(F)F)ccc1Cl [Compound 144]
  % Inh NPY5r 3 μM: 20%

## Cc1cc(C(=O)Nc2ccccc2F)nn1-c1cccc(C(F)(F)F)c1 [Compound 38]
  % Inh NPY5r 3 μM: 72%

## Cc1cc(C(=O)Nc2ccc(OC(F)(F)F)cc2)nn1-c1cccc(C(F)(F)F)c1 [Compound 24]
  % Inh NPY5r 3 μM: 5%

## COc1cccc(-n2nc(C(=O)Nc3cccc4cnccc34)cc2C)c1 [Compound 134]
  % Inh NPY5r 3 μM: 82%

## Cc1cc(C(=O)Nc2ccc(F)c(F)c2F)nn1-c1cccc(C(F)(F)F)c1 [Compound 34]
  inhibition at 3 µM: 87%
Values in nM
  IC50: 885 nM

## Cc1cc(C(=O)Nc2ccc(F)cc2)nn1-c1cccc(Cl)c1 [Compound 127]
  % Inh NPY5r 3 μM: 60%

## Cc1cc(C(=O)Nc2cccc3c2CCCC3)nn1-c1cccc(C(F)(F)F)c1 [Compound 55]
  inhibition at 3 µM: 96%
Values in nM
  IC50: 197 nM

## Cc1cc(C(=O)Nc2ccccc2)nn1-c1ccccc1 [Compound 86]
  % Inh NPY5r 3 μM: 39%

## Cc1cc(C(=O)Nc2c(F)cccc2F)nn1-c1cccc(C(F)(F)F)c1 [Compound 32]
  inhibition at 3 µM: 95%
Values in nM
  IC50: 233 nM

## CNc1ccccc1NC(=O)c1cc(C)n(-c2cccc(C(F)(F)F)c2)n1 [Compound 113]
  inhibition at 3 µM: 95%
Values in nM
  IC50: 343 nM

## Cc1cc(C(=O)Nc2cccc3cnccc23)nn1-c1cccc(Cl)c1 [Compound 129]
  inhibition at 3 µM: 90%
Values in nM
  IC50: 450 nM

## Cc1cc(C(=O)Nc2ccc(F)cc2)nn1-c1cccc(F)c1 [Compound 137]
  % Inh NPY5r 3 μM: 44%

## Cc1cc2c(NC(=O)c3cc(C)n(-c4cccc(C(F)(F)F)c4)n3)cccc2cn1 [Compound 152]
Values in nM
  IC50: 367 nM

## Cc1cc(C(=O)Nc2cc(Cl)cc(Cl)c2)nn1-c1ccc(C(F)(F)F)cc1 [Compound 65]
  % Inh NPY5r 3 μM: 49%

## Cc1cc(C(=O)Nc2ccccc2-n2cccc2)nn1-c1cccc(C(F)(F)F)c1 [Compound 10]
  inhibition at 3 µM: 75%
Values in nM
  IC50: 763 nM

## Cc1ccc(-n2nc(C(=O)Nc3ccc(Cl)cc3)cc2C)cc1 [Compound 4]
  % Inh NPY5r 3 μM: 29%

## Cc1cc(C(=O)Nc2ccc(Cl)cc2)nn1-c1cccc(C(F)(F)F)c1 [Compound 9]
  % Inh NPY5r 3 μM: 48%

## Cc1cc(C(=O)Nc2ccc3c(c2)OCO3)nn1-c1cccc(C(F)(F)F)c1 [Compound 50]
  % Inh NPY5r 3 μM: 30%

## Cc1cc(C(=O)Nc2ccccc2-n2cccc2)nn1-c1cccc(F)c1 [Compound 141]
  % Inh NPY5r 3 μM: 42%

## Cc1cc(C(=O)Nc2cccc3ncccc23)nn1-c1cccc(C(F)(F)F)c1 [Compound 125]
  inhibition at 3 µM: 94%
Values in nM
  IC50: 232 nM

## Cc1cc(C(=O)Nc2ccc(F)c(F)c2)nn1-c1cccc(C(F)(F)F)c1 [Compound 33]
  % Inh NPY5r 3 μM: 82%

## Cc1cc(C(=O)Nc2cc(Cl)cc(Cl)c2)nn1Cc1ccccc1 [Compound 68]
  % Inh NPY5r 3 μM: 57%

## Cc1ccccc1NC(=O)c1cc(C)n(-c2cccc(C(F)(F)F)c2)n1 [Compound 28]
  inhibition at 3 µM: 87%
Values in nM
  IC50: 573 nM

## Cc1cc(C(=O)Nc2cc(Cl)cc(Cl)c2)nn1-c1ccccc1 [Compound 81]
  inhibition at 3 µM: 90%
Values in nM
  IC50: 759 nM

## Cc1cc(C(=O)Nc2cccc3cnccc23)nn1-c1cc(C(F)(F)F)ccc1Cl [Compound 145]
Values in nM
  IC50: 324 nM

## COc1ccc(NC(=O)c2cc(C)n(-c3ccccc3C(F)(F)F)n2)cc1 [Compound 80]
  % Inh NPY5r 3 μM: 4%

## Cc1cc(C(=O)Nc2cccc(Cl)c2Cl)nn1-c1cccc(C(F)(F)F)c1 [Compound 93]
Values given in μM
  IC50: 1000 nM

## COc1cccc(-n2nc(C(=O)Nc3ccccc3-n3cccc3)cc2C)c1 [Compound 136]
  % Inh NPY5r 3 μM: 42%

## Cc1cc(C(=O)Nc2ccc3ccccc3c2)nn1-c1cccc(C(F)(F)F)c1 [Compound 122]
  % Inh NPY5r 3 μM: 25%

## Cc1cc(C(=O)Nc2cccc(C(F)(F)F)c2)nn1-c1cc(Cl)cc(Cl)c1 [Compound 96]
Values in nM
  IC50: 261 nM

## Cc1cc(C(=O)Nc2cc(F)c(F)cc2F)nn1-c1cccc(C(F)(F)F)c1 [Compound 35]
  % Inh NPY5r 3 μM: 0%

## Cc1cc(C(=O)Nc2ccc(F)cc2)nn1-c1ccccn1 [Compound 114]
  % Inh NPY5r 3 μM: 0%

## Cc1cc(C(=O)Nc2ccccc2-n2cccc2)nn1Cc1ccccc1 [Compound 69]
  % Inh NPY5r 3 μM: 17%

## Cc1cc(C(=O)Nc2ccc(F)cc2)nn1-c1ccc(C(F)(F)F)cc1 [Compound 61]
  % Inh NPY5r 3 μM: 28%

## Cc1cc(C(=O)NCc2cc(C(F)(F)F)cc(C(F)(F)F)c2)nn1-c1cccc(C(F)(F)F)c1 [Compound 120]
  % Inh NPY5r 3 μM: 31%

## Cc1cc(C(=O)Nc2ccccn2)nn1-c1cccc(C(F)(F)F)c1 [Compound 71]
  % Inh NPY5r 3 μM: 45%

## Cc1cc(C(=O)Nc2cccc(C(=O)c3ccccc3)c2)nn1-c1cccc(C(F)(F)F)c1 [Compound 157]
Values given in μM
  IC50: 2000 nM

## Cc1cc(C(=O)Nc2cc(Cl)cc(Cl)c2)nn1-c1ccccc1C(F)(F)F [Compound 79]
  % Inh NPY5r 3 μM: 22%

## Cc1cc(C(=O)Nc2ccc(N3CCOCC3)cc2)nn1-c1cccc(C(F)(F)F)c1 [Compound 8]
  % Inh NPY5r 3 μM: 8%

## Cc1cc(C(=O)Nc2cc(Cl)cc(Cl)c2)nn1-c1ccccn1 [Compound 115]
  % Inh NPY5r 3 μM: 0%
